A value given as a limit tells only on which side of the number the result lay.

The target of this assay is T1, recombinant human MetAP-2 (Homo sapiens, UniProt P50579).
T1 construct: His tag (N); TEV cleavage site (N); made in house
T1 sequence (P50579 whole entry): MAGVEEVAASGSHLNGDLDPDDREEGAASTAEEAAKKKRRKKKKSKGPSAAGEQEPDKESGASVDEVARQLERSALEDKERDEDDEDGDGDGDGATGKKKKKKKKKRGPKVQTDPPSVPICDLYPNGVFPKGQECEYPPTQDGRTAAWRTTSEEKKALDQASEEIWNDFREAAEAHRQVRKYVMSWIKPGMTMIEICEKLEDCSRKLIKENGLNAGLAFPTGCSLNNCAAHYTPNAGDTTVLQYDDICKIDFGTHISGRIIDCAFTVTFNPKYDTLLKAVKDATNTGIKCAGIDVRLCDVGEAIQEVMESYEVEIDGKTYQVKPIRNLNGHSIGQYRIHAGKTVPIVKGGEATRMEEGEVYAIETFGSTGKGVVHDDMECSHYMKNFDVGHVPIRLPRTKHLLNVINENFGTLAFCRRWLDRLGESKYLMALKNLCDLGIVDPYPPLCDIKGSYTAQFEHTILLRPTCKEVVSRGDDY
The experiment in a line: Enzymatic activity assay of Methionine aminopeptidase 2 (enzyme coupled assay, Met-Ala-Ser substrate). Particulars: recombinant human MetAP-2 (His-Tev-MetAP-2), absorbance at 450 nm, kinetic mode, read-out: MeAP2 IC50. Type of assay: biochemical. As for the experimental part: The MetAP-2 activity was determined by an enzyme coupled assay using the tripeptide Met-Ala-Ser (MAS) as substrate and recombinant human MetAP-2 (His-Tev-MetAP-2, prepared in-house). The released methionine is converted by L-amino acid oxidase (AAO) to Met ox and hydrogen peroxide is released. In a second step horse radish peroxidase catalyses the oxidation of the leuko dye dianisidine to dianisidine ox with hydrogen peroxide as co-substrate. The produced dianisidine ox was detected photometrically as increase in absorbance at 450 nm. MetAP-2 activity was determined in a kinetic measurement mode. The release of one molecule methionine corresponds to the production of one molecule dianisidine ox. The MetAP-2 enzymatic activity is directly corresponding to the increase in absorbance per time.
The term IC50 denotes the concentration that gives 50% inhibition. As for `CP(C)(=O)c1ccc(N2CC[C@@](O)(C(=O)NCc3cc(F)cc(F)c3)C2=O)cn1` [Compound 6a], the IC50 was more than 10000 nM.
Regarding `O=C(NCc1cc(F)cc(F)c1)[C@@]1(O)CCN(c2ccc3c(c2)C2(CCC2)S(=O)(=O)N3)C1=O` [Compound 18, (S)-N-(3,5-difluorobenzyl)-1-(2,2-dioxido-1H-spiro[benzo[c]isothiazole-3,1′-cyclobutan]-5-y 1)-3-hydroxy-2-oxopyrrolidine-3-carboxamide], the IC50 was less than 1000 nM.
`CC(C)P(=O)(c1ccc(N2CC[C@@](O)(C(=O)NCc3cc(F)cc(F)c3)C2=O)cc1)C(C)C` [Compound 4a]: the IC50 is less than 1000 nM.
The figure for `O=C(NCc1cc(F)cc(F)c1)[C@@]1(O)CCN(c2ccc(P(=O)(C3CC3)C3CC3)cc2)C1=O` [Compound 10, (S)-1-(4-(dicyclopropylphosphoryl)phenyl)-N-(3,5-difluorobenzyl)-3-hydroxy-2-oxopyrrolidine-3-carboxamide] is less than 1000 nM; for `O=C(NCc1cc(F)cc(Cl)c1)[C@@]1(O)CCN(c2ccc3c(c2)C2(CCC2)S(=O)(=O)N3)C1=O` [Compound 19, (S)-N-(3-chloro-5-fluorobenzyl)-1-(2,2-dioxido-1H-spiro[benzo[c]isothiazole-3,1′-cyclobutan]-5-yl)-3-hydroxy-2-oxopyrrolidine-3-carboxamide] it is less than 1000 nM.
The value for `CP(C)(=O)c1ccc(N2CC[C@](O)(C(=O)NCc3cc(F)cc(Cl)c3)C2=O)cc1` [Compound 9, (S)-N-(3-chloro-5-fluorobenzyl)-1-(4-(dimethylphosphoryl)phenyl)-3-hydroxy-2-oxopyrrolidine-3-carboxamide] was less than 1000 nM.
The figure for `CCP(=O)(CC)c1ccc(N2CC[C@](O)(C(=O)NCc3cc(F)cc(F)c3)C2=O)cc1` [Compound 3, (S)-1-(4-(diethylphosphoryl)phenyl)-N-(3,5-difluorobenzyl)-3-hydroxy-2-oxopyrrolidine-3-c arboxamide] is less than 1000 nM; for `O=C1Nc2ccc(N3CC[C@](O)(C(=O)NCc4cc(F)cc(Cl)c4)C3=O)cc2C12CC2` [Compound 13, (S)-N-(3-chloro-5-fluorobenzyl)-3-hydroxy-2-oxo-1-(2′-oxospiro[cyclopropane-1,3′-indoline]-5′-yl)pyrrolidine-3-carboxamide] it is less than 1000 nM.
With `O=C1Nc2ccc(N3CC[C@](O)(C(=O)NCc4cc(F)cc(F)c4)C3=O)cc2C12CCCC2` [Compound 15, (S)-N-(3,5-difluorobenzyl)-3-hydroxy-2-oxo-1-(2′-oxospiro[cyclopentane-1,3′-indoline]-5′-yl)pyrrolidine-3-carboxamide], the IC50 is less than 1000 nM.
Regarding `CCP(=O)(CC)c1ccc(N2CC[C@@](O)(C(=O)NCc3cc(F)cc(F)c3)C2=O)cc1` [Compound 3a], the IC50 fell in the range of 1000 to 10000 nM.
The figure for `CP(C)(=O)c1ccc(N2CC[C@@](O)(C(=O)NCc3cc(F)cc(Cl)c3)C2=O)cc1` [Compound 9a] is less than 1000 nM; for `C[Si](C)(C)c1ccc(N2CC[C@](O)(C(=O)NCc3cc(F)cc(F)c3)C2=O)cc1` [Compound 11, (S)-N-(3,5-difluorobenzyl)-3-hydroxy-2-oxo-1-(4-(trimethylsilyl)phenyl)pyrrolidine-3-carbo xamide] it is less than 1000 nM; for `O=C1Nc2ccc(N3CC[C@@](O)(C(=O)NCc4cc(F)cc(Cl)c4)C3=O)cc2C12CC2` [Compound 13a] it is 1000 to 10000 nM.
Take `O=C(NCc1cc(F)cc(F)c1)[C@@]1(O)CCN(c2ccc3c(c2)C2(CC2)CN3)C1=O` [Compound 12, (S)-N-(3,5-difluorobenzyl)-3-hydroxy-2-oxo-1-(spiro[cyclopropane-1,3′-indoline]-5′-yl)pyrr olidine-3-carboxamide]: the IC50 was less than 1000 nM.
Take `CC(C)P(=O)(c1ccc(N2CC[C@@](O)(C(=O)NCc3cc(F)cc(Cl)c3)C2=O)cc1)C(C)C` [Compound 7a]: the IC50 was more than 10000 nM.
The value for `CP(C)(=O)c1ccc(N2CC[C@@](O)(C(=O)NCc3cc(F)cc(F)c3)C2=O)cc1` [Compound 1a, (R)-N-(3,5-difluorobenzyl)-1-(4-(dimethylphosphoryl)phenyl)-3-hydroxy-2-oxopyrrolidine-3-car boxamide] was 1000 to 10000 nM; that for `O=C1Nc2ccc(N3CC[C@](O)(C(=O)NCc4cc(F)cc(Cl)c4)C3=O)cc2C12CCC2` [Compound 14, (S)-N-(3-chloro-5-fluorobenzyl)-3-hydroxy-2-oxo-1-(2′-oxospiro[cyclobutane-1,3′-indoline]-5′-yl)pyrrolidine-3-carboxamide] was less than 1000 nM.
The figure for `CP(C)(=O)c1cccc(N2CC[C@](O)(C(=O)NCc3cc(F)cc(F)c3)C2=O)c1` [Compound 2, (S)-N-(3,5-difluorobenzyl)-1-(3-(dimethylphosphoryl)phenyl)-3-hydroxy-2-oxopyrrolidine-3-carboxamide] is less than 1000 nM; for `CP(C)(=O)c1ccc(N2CC[C@](O)(C(=O)NCc3cc(F)cc(F)c3)C2=O)cn1` [Compound 6, (S)-N-(3,5-difluorobenzyl)-1-(6-(dimethylphosphoryl)pyridin-3-yl)-3-hydroxy-2-oxopyrrolidine-3-carboxamide] it is less than 1000 nM.
The figure for `O=C1Nc2ccc(N3CC[C@](O)(C(=O)NCc4cc(F)cc(F)c4)C3=O)cc2C12CC2` [Compound 16, (S)-N-(3,5-difluorobenzyl)-3-hydroxy-2-oxo-1-(2′-oxospiro[cyclopropane-1,3′-indoline]-5′-yl)pyrrolidine-3-carboxamide] is less than 1000 nM; for `O=C(NCc1cc(F)cc(Cl)c1)[C@]1(O)CCN(c2ccc(P(=O)(C3CC3)C3CC3)cc2)C1=O` [Compound 8a] it is 1000 to 10000 nM; for `O=C(NCc1cc(F)cc(Cl)c1)[C@@]1(O)CCN(c2ccc3c(c2)C2(CC2)S(=O)(=O)N3)C1=O` [Compound 20, (S)-N-(3-chloro-5-fluorobenzyl)-1-(2,2-dioxido-1H-spiro[benzo[c]isothiazole-3,1′-cyclopropan]-5-yl)-3-hydroxy-2-oxopyrrolidine-3-carboxamide] it is less than 1000 nM.
For `CP(C)(=O)c1ccc(N2CC[C@](O)(C(=O)NCc3cc(F)cc(F)c3)C2=O)cc1` [Compound 1, (S)-N-(3,5-difluorobenzyl)-1-(4-(dimethylphosphoryl)phenyl)-3-hydroxy-2-oxopyrrolidine-3-arboxamide], the 50% inhibitory concentration (IC50) is less than 1000 nM.
The figure for `CP(C)(=O)c1cccc(N2CC[C@@](O)(C(=O)NCc3cc(F)cc(F)c3)C2=O)c1` [Compound 2a] is 1000 to 10000 nM.
The value for `CC(C)P(=O)(c1ccc(N2CC[C@](O)(C(=O)NCc3cc(F)cc(F)c3)C2=O)cc1)C(C)C` [Compound 4, (S)-N-(3,5-difluorobenzyl)-1-(4-(diisopropylphosphoryl)phenyl)-3-hydroxy-2-oxopyrrolidine-3-carboxamide] was less than 1000 nM; that for `CC(C)P(=O)(c1ccc(N2CC[C@](O)(C(=O)NCc3cc(F)cc(Cl)c3)C2=O)cc1)C(C)C` [Compound 7, (S)-N-(3-chloro-5-fluorobenzyl)-1-(4-(diisopropylphosphoryl)phenyl)-3-hydroxy-2-oxopyrr olidine-3-carboxamide] was less than 1000 nM.
The figure for `O=C1Nc2ncc(N3CC[C@](O)(C(=O)NCc4cc(F)cc(Cl)c4)C3=O)cc2C12CC2` [Compound 17, (S)-N-(3-chloro-5-fluorobenzyl)-3-hydroxy-2-oxo-1-(2′-oxo-1′,2′-dihydrospiro[cyclopropane-1,3′-pyrrolo[2,3-b]pyridine]-5′-yl)pyrrolidine-3-carboxamide] is less than 1000 nM; for `O=C(NCc1cc(F)cc(Cl)c1)[C@@]1(O)CCN(c2ccc(P(=O)(C3CCC3)C3CCC3)cc2)C1=O` [Compound 5, (S)-N-(3-chloro-5-fluorobenzyl)-1-(4-(dicyclobutylphosphoryl)phenyl)-3-hydroxy-2-oxopyrr olidine-3-carboxamide] it is less than 1000 nM; for `NC(=O)c1cc2cc(N3CCC(O)(C(=O)NCc4cc(F)cc(F)c4)C3=O)sc2[nH]1` (stereo not drawn) [Compound 23, 2-(3-(3,5-difluorobenzylcarbamoyl)-3-hydroxy-2-oxopyrrolidin-1-yl)-6H-thieno[2,3-b]pyrro 1e-5-carboxamide] it is less than 1000 nM.
For the molecule `O=C(NCc1cc(F)cc(Cl)c1)[C@@]1(O)CCN(c2ccc(P(=O)(C3CC3)C3CC3)cc2)C1=O` [Compound 8, (S)-N-(3-chloro-5-fluorobenzyl)-1-(4-(dicyclopropylphosphoryl)phenyl)-3-hydroxy-2-oxopy rrolidine-3-carboxamide], the half-inhibitory concentration (IC50) was less than 1000 nM.
The figure for `O=C(NCc1cc(F)cc(F)c1)[C@]1(O)CCN(c2ccc(P(=O)(C3CC3)C3CC3)cc2)C1=O` [Compound 10a] is 1000 to 10000 nM.
Turning to `O=C(NCc1cc(F)cc(Cl)c1)[C@]1(O)CCN(c2ccc(P(=O)(C3CCC3)C3CCC3)cc2)C1=O` [Compound 5a], the half-inhibitory concentration (IC50) fell in the range of 1000 to 10000 nM.
The value for `O=C(NCc1cc(F)cc(Cl)c1)C1(O)CCN(c2ccc(P(=O)(C3CCC3)C3CCC3)cc2)C1=O` (racemic) [Compound 5-7] was less than 1000 nM.

The values are drawn from patent US20240208942A1, “METAP-2 INHIBITORS, PHARMACEUTICAL COMPOSITIONS AND THERAPEUTIC METHODS THEREOF” (CANWELL BIOTECH LIMITED, priority 2021, published 2024).
